Data published in US20260001854A1, “CONJUGATE COMPOUND COMPRISING 13-CIS-RETINOIC ACID AND ASCORBIC ACID” (Mastery Biotech CO., LTD., priority 2023, published 2026).

Assays:
[1] = MTT cell viability (cytotoxicity) assay, A549; type: cell-based; conditions: human, A549 cells
A549 = assay: MTT cell viability (cytotoxicity) assay, A549; type: cell-based, human; conditions: Homo sapiens; A549 cell line, estimated from cell viability values with Quest Graph IC50 Calculator; read-out: IC50 (concentration that inhibited cell survival to 50%)
Procedure: (§1) Cells were cultured in indicated growth medium with 10% FBS and were maintained in a humidified incubator at 37° C. containing 5% CO2. Formula A2 compound was weighted and dissolved in DMSO/EtOH mixture solvent of 1/4 (v/v) ratio to a final concentration of 200 mM at the day of treatment. One day before treatment, cells at log-phase of growth were harvested, counted, and seeded in a 96-well plate at a density of 5×10^3 cells/[…]/well. After cultivation overnight, assumed wells were gently added with […] of fresh media prepared with the serial concentration from 40 to 1000 μM to bring the working concentration from 20 to 500 μM subsequently. The control plate without Formula A2 was carried out as the same procedure as above but […] of fresh media prepared with the equal solvent volume added. All plates were mixed gently and incubated for next 24 hours.
(§2) At the day of cell viability detection, tested wells were added […] of MTT working solution and incubated at 37° C. for 3 hours. Spectrophotometric absorbance readings were recorded at wavelength of 540 nm. Readings from blank wells (wells contains only cell culture medium without cells) and negative control wells (wells with cell and culture medium without Formula A2 and solvent treatment) were recorded and used for calibration. After all readings of OD540 subtracted the blank value, the percentage of cell viability were calculated using the following formula: […]
(§3) The concentration of Compound A that inhibited cell survival to 50% (IC50) was determined by an online tool “Quest Graph™ IC50 Calculator.” AAT Bioquest, Inc., 26 June. 2024, www.aatbio.com/tools/ic50-calculator.

[2] = MTT cell viability (cytotoxicity) assay, A549; type: cell-based, human; conditions: human, A549 cells
Procedure: as §1, §2, §3

[3] = MTT cell viability (cytotoxicity) assay, Caco-2; type: cell-based; conditions: human, mean of 6 wells
Procedure: as §1, §2, §3

[4] = MTT cell viability (cytotoxicity) assay, PANC-1; type: cell-based; conditions: human, PANC-1 cells, mean of 6 wells
Procedure: as §1, §2, §3

CC1=C(/C=C/C(C)=C/C=C/C(C)=C\C(=O)O)C(C)(C)CCC1 [13-cis retinoic acid, (2Z,4E,6E,8E)-3,7-dimethyl-9-(2,6,6-trimethylcyclohex-1-en-1-yl)nona-2,4,6,8-tetraenoic acid, reference compound]
viability at 24 h, 7.5 μM ([1]; 13-cis RA 7.5 μM): 95%
viability at 24 h, 15 μM ([1]; 13-cis RA 15 μM): 78%
viability at 24 h, 960 μM ([1]; 13-cis RA 960 μM): 51%
IC50 (A549): 518 µM
viability at 24 h, 30 μM ([2]; 13-cis RA 30 μM): 75%
viability at 24 h, 60 μM ([2]; 13-cis RA 60 μM): 73%
viability at 24 h, 120 μM ([2]; 13-cis RA 120 μM): 57%
viability at 24 h, 240 μM ([2]; 13-cis RA 240 μM): 50%
viability at 24 h, 480 μM ([2]; 13-cis RA 480 μM): 50%

CC1=C(/C=C/C(C)=C/C=C/C(C)=C\C(=O)OC2=C(O)[C@@H]([C@@H](O)CO)OC2=O)C(C)(C)CCC1 [Formula A1]
viability at 24 h, 200 µM ([3]; 200 μM): 91%
viability at 24 h, 300 µM ([3]; 300 μM): 58%
viability at 24 h, 400 µM ([3]; 400 μM): 33%
viability at 24 h, 500 µM ([3]; 500 μM): 24%
viability at 24 h, 20 μM ([4]; 20 μM): 69%
viability at 24 h, 50 μM ([4]; 50 μM): 69%
viability at 24 h, 100 μM ([4]; 100 μM): 54%
viability at 24 h, 150 μM ([4]; 150 μM): 50%
viability at 24 h, 180 μM ([4]; 180 μM): 16%
viability at 24 h, 230 μM ([4]; 230 μM): 17%
viability at 24 h, 253 μM ([4]; 253 μM): 19%
viability at 24 h, 500 µM ([4]; 500 μM): 22%
viability at 24 h, 50 μM ([1]; Formula A1 50 μM, 24 hours, MTT, mean of 6 wells): 94%
IC50 (A549): 197 µM
viability at 24 h, 20 μM ([2]; Formula A1 20 μM, 24 hours, MTT, mean of 6 wells): 102%
viability at 24 h, 100 μM ([2]; Formula A1 100 μM, 24 hours, MTT, mean of 6 wells): 100%
viability at 24 h, 150 μM ([2]; Formula A1 150 μM, 24 hours, MTT, mean of 6 wells): 80%
viability at 24 h, 180 μM ([2]; Formula A1 180 μM, 24 hours, MTT, mean of 6 wells): 29%
viability at 24 h, 230 μM ([2]; Formula A1 230 μM, 24 hours, MTT, mean of 6 wells): 63%
viability at 24 h, 253 μM ([2]; Formula A1 253 μM, 24 hours, MTT, mean of 6 wells): 28%
viability at 24 h, 500 µM ([2]; Formula A1 500 μM, 24 hours, MTT, mean of 6 wells): 11%
